Assay results: article doi:10.1101/2022.07.21.500659v1 (bioRxiv, 2022)

Columns and labels:
Assay type in all cases: in vivo, mouse
[1] = test system: OVX BALB/c mice; assay: Bone strength, 3-point bending of femur in OVX mice; conditions: 8 weeks of treatment
[2] = test system: OVX BALB/c mice; assay: High resolution X-ray microCT of tibia in OVX mice; conditions: 8 weeks, vs OVX+vehicle
[3] = test system: OVX BALB/c mice; assay: Circulating PTH, CTX-I and P1NP in OVX mice; conditions: plasma at necropsy, vs OVX+vehicle
[4] = test system: OVX BALB/c mice; conditions: femur midshaft cortical cross-section, FTIRI, vs vehicle-treated OVX mice
[5] = test system: OVX BALB/c mice; assay: Dynamic bone histomorphometry of tibia in OVX mice; conditions: calcein labelling

With `O=P(O)(O)C(O)(Cn1ccnc1)P(=O)(O)O` [zoledronic acid] the “Reduced deformation in load-deformation curves of OVX mice” value [1] was “not ameliorated”, the “Increase of cortical thickness” value ([2]; midshaft tibia) was 6% and the “Increase of trabeculae numbers” value ([2]; proximal tibia) was 106%. For the same molecule, the “Increase of trabecular bone mass” value ([2]; proximal tibia) was 85%, the “Change of circulating levels of P1NP” value [3] was −25% and the “Reduction of circulating levels of CTX-I” value [3] was 24%. For the same molecule, the “Enhancement of collagen maturity” value [4] was “None of these effects were observed”, the “Reduction of the degree of mineralization of the bone ECM” value [4] was “None of these effects were observed” and the Active mineralizing surface [5] was “reduction”. For the same molecule, the Bone formation rate [5] was “reduction”.
